System: T1, β-glucuronidase from P. purpurogenum Li-3 (PGUS)
T1 construct: native enzyme from mycelia of the fungus grown on GL; crude extract for kinetics, or ammonium sulfate and DEAE-cellulose
Test: HPLC of GAMG formed; double reciprocal plot
Assay type: biochemical, Talaromyces purpureogenus
Settings: control without ISL; crude β-glucuronidase solution, 2 h, 40 °C, sodium acetate buffer pH 5.0
From the text: HPLC of GAMG formed; double reciprocal plot on β-glucuronidase from P. purpurogenum Li-3 (PGUS)

CC1(C)[C@@H](O[C@H]2O[C@H](C(=O)O)[C@@H](O)[C@H](O)[C@H]2O[C@@H]2O[C@H](C(=O)O)[C@@H](O)[C@H](O)[C@H]2O)CC[C@]2(C)[C@H]3C(=O)C=C4[C@@H]5C[C@@](C)(C(=O)O)CC[C@]5(C)CC[C@@]4(C)[C@]3(C)CC[C@@H]12 [GL, glycyrrhizin]
K m: 410 µM
